One may read the GI50 as the concentration that inhibits growth by half.

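Growth conditions: 96-well plates. Treatment: test compound, 48 hours, 5 concentrations. Analysis: linear interpolation between bracketing concentrations; unreached endpoints set to highest concentration. GI50 = concentration required for 50% inhibition of growth.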 The source made the active and inactive calls. Cut-off read from the data, not from the text of the source: active = GI50 up to about 1.1 µM and inactive = higher.

The results in this text go back to ChEMBL document CHEMBL1201862, “PubChem BioAssay data set” (2004).

Among the test systems are ACHN; RXF 393; T47D; SF-295; UACC-257; MOLT-4; K562; DU-145; MDA-MB-231; RPMI-8226; HCC 2998; U-251; NCI-H226; A498; SF-539; KM12; SNB-19; OVCAR-5; Hs-578T; HL-60.
Common to all, as to assay: DTP human tumour cell line panel, 48 h

Regarding `CCCNC(=O)N(C)C(=O)N1N=C(c2ccccc2)C1c1ccccc1` (configuration not stated), the GI50 in the test with ACHN was 90.6 µM (inactive); in the test on RXF 393, > 100 µM (inactive); in the test with T47D it was > 100 µM (inactive); in the test with SF-295, 64.7 µM (inactive); with UACC-257 it was 82.6 µM (inactive); with MOLT-4, 23.7 µM (inactive). Besides, the GI50 with K562 was 49 µM (inactive); in the test with DU-145, > 100 µM (inactive); in the test with MDA-MB-231 it was > 100 µM (inactive); in the test with RPMI-8226, 38.2 µM (inactive); in the test on HCC 2998 it was 60 µM (inactive); with U-251 it was 89.9 µM (inactive). Besides, the GI50 in the test with NCI-H226 is > 100 µM (inactive); in the test on A498, > 100 µM (inactive); with SF-539, > 100 µM (inactive); with KM12, 40.5 µM (inactive); in the test on SNB-19, > 100 µM (inactive).

Turning to `COc1cc2c(cc1OCCCCCN1C(=O)c3cccc4cccc(c34)C1=O)N=C[C@@H]1CCCN1C2=O`, the 50% growth inhibitory concentration (GI50) with ACHN is 0.167 µM (active); in the test on RXF 393, 0.0647 µM (active); in the test on T47D, 0.13 µM (active); in the test on SF-295 it was 0.386 µM (active); in the test with UACC-257, 0.323 µM (active); in the test with MOLT-4 it was 0.0743 µM (active). In addition, the concentration for 50% growth inhibition (GI50) was 0.114 µM (active) with K562; 0.255 µM (active) with DU-145; 0.286 µM (active) in the test with MDA-MB-231; 0.119 µM (active) in the test on RPMI-8226; 0.3 µM (active) in the test on HCC 2998; 0.249 µM (active) in the test with U-251. Also, the GI50 was 0.177 µM (active) with NCI-H226; 0.31 µM (active) in the test on A498; 0.0646 µM (active) with SF-539; 0.231 µM (active) in the test on KM12; 0.406 µM (active) in the test with OVCAR-5; 0.327 µM (active) in the test with SNB-19.

`Cc1ccc(S(=O)(=O)Nn2c(S)c(C#N)c(-c3ccc([N+](=O)[O-])cc3)c(C#N)c2=O)cc1`: the GI50 was 51.5 µM (inactive) in the test with ACHN; 39 µM (inactive) with RXF 393; 49.4 µM (inactive) in the test with SF-295; 40.8 µM (inactive) with UACC-257; 17.3 µM (inactive) with MOLT-4; 21.2 µM (inactive) in the test on K562. Further, the GI50 in the test on MDA-MB-231 was 17.7 µM (inactive); in the test on RPMI-8226, 16.4 µM (inactive); in the test on Hs-578T it was 32.4 µM (inactive); in the test with HCC 2998, 31.6 µM (inactive); in the test on U-251, 29 µM (inactive); with NCI-H226, 40.6 µM (inactive). In addition, the GI50 was 89.1 µM (inactive) with A498, 16.7 µM (inactive) with SF-539, 31.6 µM (inactive) in the test on KM12 and 72.9 µM (inactive) in the test on OVCAR-5.

With `CCOC(=O)C(NC(=O)Nc1ccc(Cl)c(Cl)c1)C(F)(F)F` (configuration not stated), the GI50 in the test on ACHN is 57.4 µM (inactive); with RXF 393, > 100 µM (inactive); in the test with T47D, > 100 µM (inactive); in the test with UACC-257 it was > 100 µM (inactive); in the test on MOLT-4, > 100 µM (inactive); in the test with K562, 92.5 µM (inactive). The GI50 is > 100 µM (inactive) in the test on RPMI-8226; 40.5 µM (inactive) in the test on Hs-578T; > 100 µM (inactive) in the test on HCC 2998; > 100 µM (inactive) in the test on U-251; > 100 µM (inactive) with A498; > 100 µM (inactive) in the test with HL-60. For the same compound, the GI50 in the test on SF-539, in the test on OVCAR-5 and in the test with SNB-19 was > 100 µM (inactive) each time.

Consider `O=C(/C=C1/Nc2ccc([N+](=O)[O-])cc2N/C1=C/C(=O)c1ccc(Cl)cc1)c1ccc(Cl)cc1`, for which the GI50 with ACHN is > 100 µM (inactive); in the test with RXF 393, 66.5 µM (inactive); in the test on T47D, > 100 µM (inactive); in the test on SF-295 it was 91 µM (inactive); with UACC-257 it was > 100 µM (inactive); in the test with MOLT-4, > 100 µM (inactive). Moreover, the GI50 in the test with K562 is 31.9 µM (inactive); with DU-145, > 100 µM (inactive); in the test with MDA-MB-231, > 100 µM (inactive); in the test on HCC 2998, > 100 µM (inactive); in the test on U-251, > 100 µM (inactive); in the test with NCI-H226, > 100 µM (inactive). The GI50 is 10.1 µM (inactive) with A498; > 100 µM (inactive) in the test with SF-539; > 100 µM (inactive) in the test on KM12; > 100 µM (inactive) in the test on OVCAR-5; > 100 µM (inactive) in the test on SNB-19.

For the compound `CC(C)(C)OC(=O)NC(CCCCNC(=O)OCc1ccccc1)C(=O)NC(CCCCNC(=O)OCc1ccccc1)C(=O)ON1C(=O)CCC1=O` (configuration not stated), the GI50 with RXF 393, in the test on T47D, in the test with UACC-257, in the test on MOLT-4, in the test with K562 and in the test on MDA-MB-231 was > 100 µM (inactive) each time. Besides, the GI50 in the test on RPMI-8226, with Hs-578T, in the test on HCC 2998, in the test on U-251, in the test with NCI-H226 and in the test on HL-60 was > 100 µM (inactive) throughout. For the same compound, the GI50 with KM12, with OVCAR-5 and in the test on SNB-19 was > 100 µM (inactive) throughout.

Consider `O=C1C=CC2(C=C1)CCC(=O)O2`, for which the GI50 was 15.2 µM (inactive) with ACHN; 14.6 µM (inactive) with RXF 393; 19.8 µM (inactive) in the test with SF-295; 18.7 µM (inactive) with UACC-257; > 100 µM (inactive) with MOLT-4; 10.7 µM (inactive) with K562. Moreover, the GI50 was 15.5 µM (inactive) with DU-145; 10.1 µM (inactive) with MDA-MB-231; 5.89 µM (inactive) in the test on RPMI-8226; 10.6 µM (inactive) in the test with Hs-578T; 14.2 µM (inactive) in the test on HCC 2998; 7.18 µM (inactive) in the test on U-251. For the same compound, the GI50 in the test on NCI-H226 is 19.2 µM (inactive); with A498, 36.3 µM (inactive); in the test with SF-539 it was 12.2 µM (inactive); in the test with KM12, 15.3 µM (inactive); with OVCAR-5, 22.7 µM (inactive); in the test with SNB-19 it was 17.5 µM (inactive).

`CNC(=O)Oc1ccc(C(=S)Nc2ccc(Br)cc2)cc1`: the GI50 in the test with ACHN is 24.4 µM (inactive); in the test on T47D it was 18.5 µM (inactive); in the test with UACC-257, 28.4 µM (inactive); with MOLT-4 it was 5.42 µM (inactive); in the test with K562 it was 14.1 µM (inactive); in the test with DU-145, 26.5 µM (inactive). Besides, the GI50 in the test with RPMI-8226 was 23 µM (inactive); in the test on Hs-578T, 19.8 µM (inactive); in the test on HCC 2998, 17.8 µM (inactive); in the test with U-251, 23.2 µM (inactive); with A498, 18.4 µM (inactive); in the test on HL-60, 2.1 µM (inactive). The GI50 in the test on SF-539 was 18.4 µM (inactive); with KM12 it was 14.3 µM (inactive); with OVCAR-5 it was 25.4 µM (inactive); in the test on SNB-19, 36.3 µM (inactive).

With `O=C1C2CCCCC2C(=O)N1n1c(Cc2ccc(Cl)cc2)n[nH]c1=O` (configuration not stated), the GI50 with ACHN, in the test on RXF 393, in the test on T47D, in the test with SF-295, with UACC-257 and in the test on MOLT-4 was > 100 µM (inactive) in each case. Moreover, the GI50 with K562, in the test on MDA-MB-231, with RPMI-8226, with Hs-578T, with HCC 2998 and with U-251 was > 100 µM (inactive) in each case. Further, the GI50 in the test on NCI-H226, in the test with A498, with SF-539, in the test with KM12, in the test with OVCAR-5 and in the test on SNB-19 was > 100 µM (inactive) in each case.

For `O=C(CC(NC(=O)OCc1ccccc1)C(=O)NC1Cc2ccccc2C1=O)OCc1ccccc1` (configuration not stated), the GI50 in the test on ACHN is > 100 µM (inactive); in the test on RXF 393, > 100 µM (inactive); in the test with SF-295, > 100 µM (inactive); in the test with UACC-257, 86.5 µM (inactive); with MOLT-4 it was > 100 µM (inactive); in the test with K562, > 100 µM (inactive). Further, the GI50 in the test with DU-145 is > 100 µM (inactive); in the test on RPMI-8226, > 100 µM (inactive); with Hs-578T it was 84.3 µM (inactive); in the test with HCC 2998 it was > 100 µM (inactive); in the test with U-251, > 100 µM (inactive); in the test with NCI-H226 it was > 100 µM (inactive). Moreover, the GI50 with SF-539, with KM12, in the test on OVCAR-5 and in the test on SNB-19 was > 100 µM (inactive) in each case.

Regarding `COc1cccc(OC)c1NC(=O)C(=O)Nn1c(NNC(=O)c2ccncc2)nc2ccccc2c1=O`, the GI50 in the test on ACHN, in the test on RXF 393, in the test with T47D, in the test with SF-295, in the test with UACC-257 and with MOLT-4 was > 100 µM (inactive) in each case. Further, the GI50 with K562, with MDA-MB-231, in the test with RPMI-8226, in the test with Hs-578T, in the test on HCC 2998 and in the test on U-251 was > 100 µM (inactive) throughout. Moreover, the GI50 with NCI-H226, with A498, in the test on HL-60, with SF-539, in the test on KM12 and in the test on OVCAR-5 was > 100 µM (inactive) in each case. Further, the GI50 with SNB-19 is > 100 µM (inactive).

`C/C(=C\c1ccc(Cl)c(Cl)c1)[N+](=O)[O-]`: the GI50 in the test with ACHN is 1.98 µM (inactive); with SF-295 it was 3.68 µM (inactive); in the test on UACC-257, 1.3 µM (inactive); in the test with MOLT-4 it was 0.398 µM (active); with K562, 1.55 µM (inactive); in the test on DU-145, 1.63 µM (inactive). Further, the GI50 in the test with MDA-MB-231 was 2.1 µM (inactive); in the test on Hs-578T, 3.24 µM (inactive); in the test on HCC 2998, 4.36 µM (inactive); in the test on U-251, 1.71 µM (inactive); in the test on NCI-H226, 2.46 µM (inactive); with A498 it was 4.4 µM (inactive). Also, the GI50 is 1.52 µM (inactive) with HL-60; 2.03 µM (inactive) in the test with SF-539; 2.02 µM (inactive) in the test with KM12; 1.96 µM (inactive) in the test on OVCAR-5; 2.39 µM (inactive) in the test with SNB-19.
